These results are taken from paper PMC10976246, “Amide-to-Triazole Switch in Somatostatin-14-Based Radioligands: Impact on Receptor Affinity and In Vivo Stability” (Pharmaceutics, 2024).

Numbered stars: 1 amine (or outer) side, 2 acyl side, 3 side chain; on linkers, the order of the positions; unused ones are H or OH. Bridge positions count the residues as written; N and C are the ends. Square brackets hold non-standard residues; d marks the D form. Peptide text beside a SMILES is read from it. * marks the point of attachment. X2 = O=C([C@H](Cc1ccccc1)n1cc([C@H](Cc2ccccc2)N[*:1])nn1)[*:2]; X1 = NC(=O)C[C@H](N[*:1])c1cn([C@@H](Cc2ccccc2)C(=O)[*:2])nn1; DOTA = O=C(O)CN1CCN(CC(=O)O)CCN(CC(=O)*)CCN(CC(=O)O)CC1

One series in a line: in vitro. In kind it is in vitro ADME. The settings on record: human, plasma. The protocol: Plasma stability studies were conducted in vitro by incubating the radioligands (in 100 µL PBS) in 1400 µL of human blood plasma (H4522–20ML, Sigma-Aldrich, Vienna, Austria) to a final concentration of 250 nM (approximately 5 MBq). After an incubation period of 6 h at 37 °C, aliquots of 100 µL were mixed with 100 µL of MeCN for protein precipitation. The mixtures were vortexed and centrifuged for 10 min (15,000× g) at 5 °C and the supernatants were collected. The supernatants (50 µL) were mixed with 0.1% aqueous TFA (50 µL) for posterior γ-HPLC analyses on a Chromolith® RP-18 performance column (2 µm, 4.6 mm × 100 mm; Merck Millipore, Vienna, Austria) eluted at a flow rate of 3 mL/min with the linear gradient from 90% A/10% B to 50% A/50% B in 14 min (A: 0.1% aqueous TFA and B: MeCN) (n = 2).

For another series, the system named is HEK293-hSST2R xenografts. To be noted: male, SCID, mouse, in vivo, iv, 3 nmol, 4 h.
A further series is described as follows: in vivo. To be noted: male, SCID, mouse, iv, 3 nmol, total radioactivity.
A further series deals with T1, hSST3R (Homo sapiens, UniProt P32745).
T1 construct: S. Schultz (Jena, Germany); host or cells: HEK293
As to the kind of experiment: Competition binding against [125I][I-Tyr25]LTT-SST-28, HEK293-SST3R cell membranes. The settings on record: vs [125I][I-Tyr25]LTT-SST-28, 1 h at 22 °C, mean ± sd.

Series [1] has as its target T2, SST2R-expressing AR42J cells (Rattus norvegicus, UniProt P30680).
T2 construct: The SST2R-expressing rat pancreatic cells (AR42J) were cultured; host or cells: AR42J rat pancreatic cells
In words: Receptor saturation binding assay in AR42J cells. The settings on record: 2 h, n = 2–3 in triplicates.
Description: AR42J cells were seeded in six-well plates (1 × 10^6 cells/well) 2 days before the assay. One hour prior to the experiment, the medium was removed, the cells were washed with PBS (1 mL) and fresh assay medium (DMEM with Glutamax-1 and supplemented with 1% FBS (v/v)) was added (1.3 mL/well). […] The determination of the unspecific binding was conducted by incubating each test radioligand in the presence of excess TATE, which was added in 100 μL of PBS to a final concentration of 5 µM. The six-well plates were incubated under standard culturing conditions for 2 h; the medium was removed, the cells were washed with PBS (2 × 1 mL) and lysed as described above. The cell lysates were collected and measured in the γ-counter.

T2 sequence (P30680 whole entry): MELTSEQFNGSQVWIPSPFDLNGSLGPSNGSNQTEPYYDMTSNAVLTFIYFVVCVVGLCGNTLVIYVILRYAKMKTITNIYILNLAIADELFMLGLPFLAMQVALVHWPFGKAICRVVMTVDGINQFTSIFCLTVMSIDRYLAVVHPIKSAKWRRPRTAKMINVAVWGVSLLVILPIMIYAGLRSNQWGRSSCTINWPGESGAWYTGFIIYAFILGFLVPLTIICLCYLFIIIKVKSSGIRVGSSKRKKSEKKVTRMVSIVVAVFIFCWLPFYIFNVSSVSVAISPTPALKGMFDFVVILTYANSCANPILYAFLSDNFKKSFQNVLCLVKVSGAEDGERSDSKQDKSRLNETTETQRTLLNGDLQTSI
T1 sequence (P32745 whole entry): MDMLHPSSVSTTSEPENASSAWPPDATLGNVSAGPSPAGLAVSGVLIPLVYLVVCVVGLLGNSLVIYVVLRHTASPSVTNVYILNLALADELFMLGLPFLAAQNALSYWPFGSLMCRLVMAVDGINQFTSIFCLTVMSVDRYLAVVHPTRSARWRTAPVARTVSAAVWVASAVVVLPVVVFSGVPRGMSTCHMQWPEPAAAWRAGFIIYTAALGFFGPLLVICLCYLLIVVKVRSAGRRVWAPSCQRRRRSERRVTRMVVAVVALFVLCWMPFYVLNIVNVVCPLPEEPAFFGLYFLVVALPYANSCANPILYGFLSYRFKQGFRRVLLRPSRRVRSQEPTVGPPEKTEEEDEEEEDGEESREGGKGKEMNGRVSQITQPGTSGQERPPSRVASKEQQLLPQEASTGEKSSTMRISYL
Description for hSST3R: After an incubation period of 1 h at 22 °C, the reaction was stopped by dilution with ice-cold washing buffer (10 mM HEPES at pH 7.4, 150 mM NaCl, 3 mL). The samples were filtered through 1%PEI presoaked glass fiber filters using a Brandel® cell harvester. After thorough washing with ice-cold washing buffer (2 × 3 mL), the filters were collected and measured in the γ-counter.

As for `C[C@H](NC(=O)CN1CCN(CC(=O)O)CCN(CC(=O)O)CCN(CC(=O)O)CC1)C(=O)NCC(=O)N[C@H]1CSSC[C@@H](C(=O)O)NC(=O)[C@H](CO)NC(=O)[C@H]([C@@H](C)O)NC(=O)[C@H](Cc2ccccc2)NC(=O)[C@H]([C@@H](C)O)NC(=O)[C@H](CCCCN)NC(=O)[C@@H](Cc2c[nH]c3ccccc23)NC(=O)[C@H](Cc2ccccc2)NC(=O)[C@H](Cc2ccccc2)n2cc(nn2)[C@H](CC(N)=O)NC(=O)[C@H](CCCCN)NC1=O` [[^111In]In-XG1, metal not drawn] ({DOTA}-AGCK[X1]F[dW]KTFTSC-OH; disulfide 3-13), the fraction remaining at 6 h, 250 nM in “in vitro” was over 90%. In the series on HEK293-hSST2R xenografts, this molecule gave a kidney uptake of over 200 % IA/g. Besides, the tissue uptake at 4 h in “in vivo” (HEK293-hSST2R tumor uptake) is 1.61 %ID/g; in “in vivo” (kidney uptake), 310 %ID/g; in “in vivo” (wtHEK293 (SST2R-negative) control tumor uptake), 0.56 %ID/g.

As to `C[C@H](NC(=O)CN1CCN(CC(=O)O)CCN(CC(=O)O)CCN(CC(=O)O)CC1)C(=O)NCC(=O)N[C@H]1CSSC[C@@H](C(=O)O)NC(=O)[C@H](CO)NC(=O)[C@H]([C@@H](C)O)NC(=O)[C@H](Cc2ccccc2)NC(=O)[C@H]([C@@H](C)O)NC(=O)[C@H](CCCCN)NC(=O)[C@@H](Cc2c[nH]c3ccccc23)NC(=O)[C@H](Cc2ccccc2)NC(=O)[C@H](Cc2ccccc2)n2cc(nn2)[C@H](CC(N)=O)NC(=O)[C@H](CCCCN)NC1=O` [XG1, [DOTA,Asn^5-Ψ[Tz]-Phe^6, D-Trp^8]SST-14] ({DOTA}-AGCK[X1]F[dW]KTFTSC-OH; disulfide 3-13), the 50% inhibitory concentration (IC50) on hSST3R turned out to be 3 ± 0.9 nM.

In series [1], `C[C@H](NC(=O)CN1CCN(CC(=O)O)CCN(CC(=O)O)CCN(CC(=O)O)CC1)C(=O)NCC(=O)N[C@H]1CSSC[C@@H](C(=O)O)NC(=O)[C@H](CO)NC(=O)[C@H]([C@@H](C)O)NC(=O)[C@H](Cc2ccccc2)NC(=O)[C@H]([C@@H](C)O)NC(=O)[C@H](CCCCN)NC(=O)[C@@H](Cc2c[nH]c3ccccc23)NC(=O)[C@H](Cc2ccccc2)NC(=O)[C@H](Cc2ccccc2)NC(=O)[C@H](CC(N)=O)NC(=O)[C@H](CCCCN)NC1=O` [[^111In]In-AT2S, metal not drawn, reference compound] came in with a Kd of 12 ± 3.88 nM. In the series “in vitro”, this molecule registered an amount remaining at 6 h, 250 nM of over 90%.

`C[C@H](NC(=O)CN1CCN(CC(=O)O)CCN(CC(=O)O)CCN(CC(=O)O)CC1)C(=O)NCC(=O)N[C@H]1CSSC[C@@H](C(=O)O)NC(=O)[C@H](CO)NC(=O)[C@H]([C@@H](C)O)NC(=O)[C@H](Cc2ccccc2)NC(=O)[C@H]([C@@H](C)O)NC(=O)[C@H](CCCCN)NC(=O)[C@@H](Cc2c[nH]c3ccccc23)NC(=O)[C@H](Cc2ccccc2)n2cc(nn2)[C@H](Cc2ccccc2)NC(=O)[C@H](CC(N)=O)NC(=O)[C@H](CCCCN)NC1=O` [[^111In]In-XG2, metal not drawn] ({DOTA}-AGCKN[X2][dW]KTFTSC-OH; disulfide 3-13): in series [1], the dissociation constant (Kd) was over 50 nM.

As a reminder, the fraction remaining is the share of the starting amount still present when the sample was taken. Broadly, the tissue uptake is the percentage of the injected dose found per gram of tissue. As a reminder, the IC50 is the concentration needed to halve the response being measured. The low end stands for higher potency, the high end for lower potency. By Kd is commonly meant the free concentration of one partner at which half of the binding sites on the other are occupied at equilibrium, for simple one-to-one binding. High values mean a looser complex, low ones a tighter complex.
